# Like-named read-outs stand apart in the source and are kept apart here.
# Key:
# [1] = system: anxiety-like behavior; experiment: Elevated plus maze (EPM); type: in vivo, male Wistar rats; settings: for Closed arm entries / Closed arm returns / Head dips in open arms / Stretch-attend postures / Time in closed arms / Time in open arms / Total arm entries: mean; for % Time in open arms / Open Arm Entries / Total distance travelled: mean ± S.E.M.
# [2] = system: sleep/wake and cataplexy; type: in vivo, male DTA mice
# [3] = system: cognitive flexibility; experiment: Operant set-shifting test against PCP; type: in vivo, male Wistar rats
# Protocol: This assay serves as a model of impaired executive function associated with neuropsychiatric disorders like schizophrenia. The aim of this study was to evaluate COMPOUND C to reverse deficits observed with PCP on cognitive flexibility using the operant set-shifting test in the rat.
# Substances & Formulation.
# Doses were prepared by separate weighing (W/V). COMPOUND C formulations were prepared fresh on each dosing day and dosing was completed within 8 hours of formulation. Phencyclidine (PCP) hydrochloride, white powder, was dissolved in physiological saline by magnetic stirring, fresh each day of dosing.
# Test System. 78 male Wistar rats were supplied for this study. • 72 rats, 8-9 weeks old, weighing 218-299 g at the beginning of the visual discrimination were submitted to the entire behavioral testing and assigned to match groups based on their performance during the second visual discrimination session. • 6 spare rats were submitted to lever pressing, side bias and visual discrimination but were discarded for the testing period (set-shift and reversal)
# The experimental protocol which detects effects on behavioral flexibility follows that described by Floresco et al. (Behav. Brain Res., 190, 85-96 (2008)).
# Apparatus. The apparatus consists of standard Med Associates ENV-008 Skinner boxes (30×25×30 cm) fitted with a house light, two retractable levers and a food pellet dispenser. The levers are located on either side of the food receptacle connected to the pellet dispenser. A light emitting diode stimulus light is positioned centrally above each lever and served as a stimulus for visual-cue discrimination learning.
# Acquisition of lever-pressing (training). The aim of this phase was to train animals to lever-press to receive a food pellet reward.
# Side bias. On the last day of training, the side bias for the rat was determined. The session was similar to the lever pressing session except that both levers were inserted into the chamber together (i.e. 90 levers presentations every 20 seconds). Again, the stimulus lights above each of the levers were not illuminated during this training session. On the first levers presentation, a food pellet was delivered after responding on either lever. Upon subsequent insertion of the levers, food was delivered only if the rat responded on the lever opposite to the one chosen initially. If the rat chose the same lever to the initial choice, no food was delivered. This continued until the rat chose the lever opposite to the one chosen initially. After choosing both levers, a new trial commenced. Thus, one trial for the side bias procedure consisted of responded on both levers. The sessions terminated after 90 levers presentations or after completion of 21 trials.
# Visual-cue discrimination learning. After determining the side bias, animals were submitted to visual-cue discrimination learning.
# A session began with both levers retracted and the chamber in darkness (the inter-trial state). Every 20 seconds, a trial began with illumination of one of the stimulus lights above one of the levers. 3 seconds later, the house light was illuminated, and both levers were inserted into the chamber. […] After food delivery, the house light remained on for another 4 seconds, after which the chamber returned to the inter-trial state. If the rat responded on the other lever (incorrect response), both levers retracted immediately without food delivery and the chamber reverted to the inter-trial state.
# [4] = 30 mg/kg PO 20 min prior to EPM
# [5] = 60 mg/kg PO 20 min prior to EPM
# [6] = 120 mg/kg PO 40 min prior to EPM
# [7] = COMPOUND A 30, 90 and 120 mg/kg, first 6 h
# [8] = COMPOUND A 90 and 120 mg/kg, ZT19-ZT24
# [9] = COMPOUND A 90 and 120 mg/kg, first 6 h
# [10] = all concentrations of COMPOUND A, first 6 h
smiles,measurement,setting,value
CCOc1ccccc1OC[C@@H]1CN(C(=O)OC(C)OC(=O)[C@@H](N)C(C)C)CCO1 (stereo partly drawn) [COMPOUND A],Closed arm entries,[1]; [4],10.00
same,Closed arm returns,[1]; [4],2.00
same,Head dips in open arms,[1]; [4],2.25
same,Stretch-attend postures,[1]; [4],18.00
same,Time in closed arms,[1]; [4],282.58 s
same,Time in open arms,[1]; [4],8.74 s
same,Total arm entries,[1]; [4],11.00
same,% Time in open arms,[1]; [4],2.91 ± 1.28%
same,Open Arm Entries,[1]; [4],1.00 ± 0.33
same,Total distance travelled,[1]; [4],1591.15 ± 73.52 cm
same,Closed arm entries,[1]; [5],7.00
same,Closed arm returns,[1]; [5],2.13
same,Head dips in open arms,[1]; [5],3.63
same,Stretch-attend postures,[1]; [5],18.63
same,Time in closed arms,[1]; [5],281.10 s
same,Time in open arms,[1]; [5],7.25 s
same,Total arm entries,[1]; [5],7.63
same,% Time in open arms,[1]; [5],2.42 ± 0.92%
same,Open Arm Entries,[1]; [5],0.63 ± 0.18
same,Total distance travelled,[1]; [5],1318.06 ± 39.58 cm
same,Closed arm entries,[1]; [6],9.63
same,Closed arm returns,[1]; [6],2.00
same,Head dips in open arms,[1]; [6],2.25
same,Stretch-attend postures,[1]; [6],20.38
same,Time in closed arms,[1]; [6],283.06 s
same,Time in open arms,[1]; [6],0.85 s
same,Total arm entries,[1]; [6],9.88
same,% Time in open arms,[1]; [6],0.28 ± 0.19%
same,Open Arm Entries,[1]; [6],0.25 ± 0.16
same,Total distance travelled,[1]; [6],1476.54 ± 60.73 cm
same,total distance traveled vs vehicle,[1]; COMPOUND A 60 and 120 mg/kg p.o.,travelled a significantly shorter distance
same,"W and NREM (hourly, cumulative and total time)","[2]; COMPOUND A 30 mg/kg, ZT19-ZT24",W increased overall (treatment effect) and NREM decreased overall
same,C levels during ZT24,[2]; COMPOUND A 120 mg/kg,approximately half of vehicle levels
same,"NREM (hourly, cumulative and total time)","[2]; COMPOUND A 120 mg/kg, ZT19-ZT24",NREM increased overall
same,latency to REM,"[2]; COMPOUND A 10, 30, 90, 120 mg/kg p.o., first 6 h of dark period",increased the latency to REM
same,number of C bouts,[2]; [7],the number of C bouts decreased overall
same,total NREM time,[2]; [7],total NREM time increased
same,total time in C (cataplexy),[2]; [7],total time in C decreased
same,REM and C during the 6-h recording,[2]; COMPOUND A 90 and 120 mg/kg,practically eliminated
same,REM:NR ratios,[2]; [8],REM:NR ratios decreased
same,latency to REM,[2]; [8],The latency to REM increased
same,LMA,[2]; [9],LMA decreased overall
same,Total W time,[2]; [9],Total W time decreased
same,C (cataplexy),"[2]; COMPOUND A two highest concentrations, ZT19-ZT24",significantly decreased
same,"NREM alpha, beta and high gamma EEG power",[2]; [10],decreased overall
same,total time in REM,[2]; [10],decreased total time in REM
same,REM:NR ratios,"[2]; all test conditions, first 6 h",REM:NR ratios decreased
CCOc1ccccc1OC[C@@H]1CN(C(=O)OC(OC(=O)[C@H](N)C(C)C)C(C)C)CCO1 (stereo partly drawn) [COMPOUND C],"number of omissions, post-hoc Dunnett","[3]; COMPOUND C 120 mg/kg p.o. + PCP, first set-shift session",significant effects at the dose of 120 mg/kg
same,number of perseverative errors vs PCP controls,"[3]; COMPOUND C 40, 80, 120 and 160 mg/kg p.o. + PCP",did not significantly affect
same,number of trials to reach the criterion vs PCP controls,"[3]; COMPOUND C 40, 80, 120 and 160 mg/kg p.o. + PCP, first set-shift and first reversal sessions",did not significantly affect the number of trials to reach the criterion
same,omissions vs PCP-treated rats,[3]; COMPOUND C 40-160 mg/kg p.o. + PCP,increased omissions

# — patent US20240343699A1, “DERIVATIVES OF SUBSTITUTED MORPHOLINES AND USES THEREOF” (Supernus Pharmaceuticals, Inc., priority 2023, published 2024)
